“And” between values parts separate entries of the source, which are not always exact repeats. Identical values can stand only once. Like-named read-outs stand apart in the source and are kept apart here.
Legend:
[1] = test system: NCI-H358 cells (K-Ras G12C); assay: CellTiter-Glo cell viability, NCI-H358; assay type: cell-based, human; conditions: read-out: H358 Cell Viability IC50
Protocol: Note—The following protocol describes a procedure for monitoring cell viability of K-Ras mutant cancer cell lines in response to a compound of the invention. Other RAS isoforms may be employed, though the number of cells to be seeded will vary based on cell line used.
Test compounds (132.5 nl) were directly dispensed into the assay plates containing cells. […] On day 5, assay plates and their contents were equilibrated to room temperature for approximately 30 minutes. […] Luminescence was measured using the PerkinElmer Enspire. Data were normalized by the following: (Sample signal/Avg. DMSO)*100. The data were fit using a four-parameter logistic fit.

[2] = test system: Capan-1 cells (K-Ras G12V); assay: CellTiter-Glo cell viability, Capan-1; assay type: cell-based, human; conditions: K-Ras G12V, 5-day treatment, read-out: Capan-1 Cell Viability IC50
Method in brief: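 Viability is read as luminescence after five days of compound exposure, with plates first equilibrated to room temperature for roughly 30 minutes. Each signal is expressed as a percentage of the mean DMSO control, and curves are fitted by four-parameter logistic regression.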

[3] = test system: K-Ras G12C (NCI-H358 cells); assay: Potency assay: pERK in NCI-H358 cells; assay type: cell-based, human; conditions: Homo sapiens; NCI-H358 cells, 4 hours; read-out: pERK EC50 (H358 KRAS G12C)
Method in brief: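 Cells plated the day before were exposed for 4 h at 37° C, 5% CO2 to a 10-point, 3-fold DMSO dilution series (10 mM top stock), in duplicate. Phospho-ERK was read by AlphaLISA SureFire Ultra or by In-Cell Western with DRAQ5 DNA stain, and IC50 came from a 4-parameter sigmoidal fit.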

KRAS G13D = KRAS G13D (Homo sapiens (Human), UniProt P01116+P62937, G13D); assay: Ras-Raf disruption/FRET/MOA assay (BRAF RBD, Cyclophilin A); assay type: biochemical; conditions: read-out: KRAS G13D FRET data IC50
Method in brief: (§1)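 Ras-GMPPNP (12.5 nM), BRAF RBD (50 nM) and 25 μM Cyclophilin A were incubated with compound for 3 h at 25° C, then detected 1.5 h with anti-His Eu and anti-GST APC; IC50 values follow from the reduced TR-FRET ratio.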

KRAS G12D = KRAS G12D (Homo sapiens (Human), UniProt P01116+P62937, G12D); assay: as above; assay type: biochemical; conditions: read-out: KRAS G12D FRET IC50
Method in brief: as §1

KRAS WT = KRAS WT (Homo sapiens (Human), UniProt P01116+P62937); assay: as above; assay type: biochemical; conditions: read-out: KRAS WT FRET data IC50
Method in brief: as §1

KRAS G12C = KRAS G12C (Homo sapiens (Human), UniProt P01116+P62937, G12C); assay: as above; assay type: biochemical; conditions: read-out: KRAS G12C FRET IC50
Method in brief: as §1

NRAS G12C = NRAS G12C (Homo sapiens (Human), UniProt P01111+P62937, G12C); assay: as above; assay type: biochemical; conditions: read-out: NRAS G12C FRET data IC50
Method in brief: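 Measured: compound-facilitated Cyclophilin A:Ras complex blocking RAF RBD binding. Conditions: 12.5 nM Ras-GMPPNP, 50 nM BRAF RBD, 25 μM CypA, 3 h plus 1.5 h detection. Output: IC50 from TR-FRET ratio.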

KRAS G13C = KRAS G13C (Homo sapiens (Human), UniProt P01116+P62937, G13C); assay: as above; assay type: biochemical; conditions: read-out: KRAS G13C FRET IC50
Method in brief: as §1

KRAS G12S = KRAS G12S (Homo sapiens (Human), UniProt P01116+P62937, G12S); assay: as above; assay type: biochemical; conditions: read-out: KRAS G12S FRET IC50
Method in brief: as §1

KRAS G12V = KRAS G12V (Homo sapiens (Human), UniProt P01116+P62937, G12V); assay: as above; assay type: biochemical; conditions: read-out: KRAS G12V FRET IC50
Method in brief: as §1

NCI-H358 (K-Ras G12C) = assay: CellTiter-Glo cell viability assay, NCI-H358; assay type: cell-based, human; conditions: Homo sapiens, NCI-H358, 120 h, 5-day treatment; read-out: H358 Cell Viability assay data (K-Ras G12C, IC50)
Method in brief: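 Viability is measured as ATP-dependent luminescence (CellTiter-Glo) five days into compound treatment. Responses are normalized to vehicle (DMSO) wells and fitted by four-parameter logistic regression.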

[4] = Homo sapiens, NCI-H358, 120 h, K-Ras G12C, 5-day treatment

KRAS G13C, sequence (P01116 other isoform, or with tags, fused parts or gaps G13C): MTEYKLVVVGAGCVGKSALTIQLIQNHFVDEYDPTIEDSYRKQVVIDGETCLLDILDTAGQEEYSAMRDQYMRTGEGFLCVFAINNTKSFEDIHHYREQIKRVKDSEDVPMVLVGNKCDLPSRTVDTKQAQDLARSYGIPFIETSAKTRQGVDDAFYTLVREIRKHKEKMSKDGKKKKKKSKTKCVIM
KRAS G13C, sequence (P62937 whole entry): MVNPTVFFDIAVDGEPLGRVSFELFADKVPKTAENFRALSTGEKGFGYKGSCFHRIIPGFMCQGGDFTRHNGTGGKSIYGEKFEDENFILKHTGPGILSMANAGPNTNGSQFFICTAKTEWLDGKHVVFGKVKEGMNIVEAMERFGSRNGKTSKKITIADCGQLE
KRAS G12D, sequence (P01116 other isoform, or with tags, fused parts or gaps G12D): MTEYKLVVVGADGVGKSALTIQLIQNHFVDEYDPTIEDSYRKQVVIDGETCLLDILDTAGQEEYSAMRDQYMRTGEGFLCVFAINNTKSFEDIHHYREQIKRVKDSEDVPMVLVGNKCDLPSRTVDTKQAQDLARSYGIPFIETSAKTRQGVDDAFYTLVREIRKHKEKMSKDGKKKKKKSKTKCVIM
KRAS G12D, sequence (P62937 whole entry): as the sequence (P62937 whole entry) above
KRAS G13D, sequence (P01116 other isoform, or with tags, fused parts or gaps G13D): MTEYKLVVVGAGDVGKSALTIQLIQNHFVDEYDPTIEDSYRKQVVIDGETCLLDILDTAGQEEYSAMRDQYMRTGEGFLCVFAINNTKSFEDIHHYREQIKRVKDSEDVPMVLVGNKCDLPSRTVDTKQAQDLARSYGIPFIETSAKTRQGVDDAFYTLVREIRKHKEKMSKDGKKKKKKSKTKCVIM
KRAS G13D, sequence (P62937 whole entry): as the sequence (P62937 whole entry) above
KRAS WT, sequence (P01116 other isoform, or with tags, fused parts or gaps): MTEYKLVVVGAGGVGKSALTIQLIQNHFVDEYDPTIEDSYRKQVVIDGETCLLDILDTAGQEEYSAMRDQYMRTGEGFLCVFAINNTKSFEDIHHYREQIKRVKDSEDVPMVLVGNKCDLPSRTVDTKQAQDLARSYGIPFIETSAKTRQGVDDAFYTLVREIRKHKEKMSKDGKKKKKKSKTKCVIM
KRAS WT, sequence (P62937 whole entry): as the sequence (P62937 whole entry) above
KRAS G12V, sequence (P01116 other isoform, or with tags, fused parts or gaps G12V): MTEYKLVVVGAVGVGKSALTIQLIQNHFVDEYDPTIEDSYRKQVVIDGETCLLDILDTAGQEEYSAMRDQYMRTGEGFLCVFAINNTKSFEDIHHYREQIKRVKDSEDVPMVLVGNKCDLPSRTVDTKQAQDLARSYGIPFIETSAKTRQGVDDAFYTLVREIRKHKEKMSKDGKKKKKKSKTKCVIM
KRAS G12V, sequence (P62937 whole entry): as the sequence (P62937 whole entry) above
KRAS G12C, sequence (P01116-2 other isoform, or with tags, fused parts or gaps G12C): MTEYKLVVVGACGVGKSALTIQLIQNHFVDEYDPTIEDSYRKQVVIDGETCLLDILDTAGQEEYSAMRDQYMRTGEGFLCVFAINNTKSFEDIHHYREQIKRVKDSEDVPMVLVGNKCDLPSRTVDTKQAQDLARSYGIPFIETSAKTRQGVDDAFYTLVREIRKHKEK
KRAS G12C, sequence (P62937 whole entry): as the sequence (P62937 whole entry) above
KRAS G12S, sequence (P01116 other isoform, or with tags, fused parts or gaps G12S): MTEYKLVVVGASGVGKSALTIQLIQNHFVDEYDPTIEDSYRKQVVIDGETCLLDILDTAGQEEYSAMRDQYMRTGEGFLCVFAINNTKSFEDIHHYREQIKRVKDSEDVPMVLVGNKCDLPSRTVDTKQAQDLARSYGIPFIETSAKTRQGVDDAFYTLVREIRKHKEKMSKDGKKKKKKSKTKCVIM
KRAS G12S, sequence (P62937 whole entry): as the sequence (P62937 whole entry) above
NRAS G12C, sequence (P01111 whole entry G12C): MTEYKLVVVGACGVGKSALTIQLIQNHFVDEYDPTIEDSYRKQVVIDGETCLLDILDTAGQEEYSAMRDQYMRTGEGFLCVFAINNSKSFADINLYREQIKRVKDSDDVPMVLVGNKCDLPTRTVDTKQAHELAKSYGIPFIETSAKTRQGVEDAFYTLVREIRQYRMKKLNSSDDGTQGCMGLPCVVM
NRAS G12C, sequence (P62937 whole entry): as the sequence (P62937 whole entry) above

| Compound | IC50 [1, 4] [nM] | EC50 [3] [nM] | IC50 (KRAS G13D) | IC50 (KRAS G12D) [nM] | IC50 (KRAS WT) | IC50 (KRAS G12C) | IC50 (NRAS G12C) | IC50 (KRAS G13C) | IC50 (KRAS G12S) | IC50 (KRAS G12V) | IC50 ([2]; Homo sapiens, CAPAN-1, 120 h) [nM] | other results |
| --- | --- | --- | --- | --- | --- | --- | --- | --- | --- | --- | --- | --- |
| CCn1c(-c2cccnc2[C@H](C)OC)c2c3cc(ccc31)-c1cc(O)cc(c1)C[C@H](NC(=O)[C@H](C(C)C)N(C)C(=O)[C@H]1C[C@@H]1C)C(=O)N1CCC[C@H](N1)C(=O)OCC(C)(C)C2 [Compound A287] | 100 to 1000 |  |  |  |  |  |  |  |  |  | 100 to 1000 |  |
| CCn1c(-c2cnccc2COC)c2c3cc(ccc31)-c1cc(O)cc(c1)C[C@H](NC(=O)[C@H](C(C)C)N(C)C(=O)C1CNC1)C(=O)N1CCC[C@H](N1)C(=O)OCC(C)(C)C2 [Compound A87] |  | < 5000 | 10 to 100 nM and 100 to 1000 nM | 100 to 1000 | 10 to 100 nM and 100 to 1000 nM | 100 to 1000 nM and 10 to 100 nM | 10 to 100 nM and 100 to 1000 nM | 100 to 1000 nM and 10 to 100 nM | 100 to 1000 nM and 10 to 100 nM | 100 to 1000 nM and 1000 to 10000 nM | > 10000 | IC50 (NCI-H358 (K-Ras G12C)): 10 to 100 nM |
| CCn1c(-c2cnccc2COC)c2c3cc(ccc31)-c1cc(O)cc(c1)C[C@H](NC(=O)[C@H](C(C)C)N(C)C(=O)OC1CCOC1)C(=O)N1CCC[C@H](N1)C(=O)OCC(C)(C)C2 (stereo partly drawn) [Compound A50, oxolan-3-yl-N-[(1S)-1-{[(8S,14S)-22-ethyl-4-hydroxy-21-[4-(methoxymethyl)pyridin-3-yl]-18,18-dimethyl-9,15-dioxo-16-oxa-10,22,28-triazapentacyclo [18.5.2.1^2,6.1^10,14.0^23,27]nonacosa-1 (26),2,4,6 (29),20,23 (27),24-heptaen-8-yl]carbamoyl}-2-methylpropyl]-N-methylcarbamate] |  |  |  |  |  |  |  |  |  |  |  | IC50 ([1]; Homo sapiens, NCI-H358, 120 h): 1000 to 10000 nM |
| CCn1c(-c2cnccc2COC)c2c3cc(ccc31)-c1cc(O)cc(c1)C[C@H](NC(=O)[C@H](C(C)C)N(C)C(=O)C1(C)COC1)C(=O)N1CCC[C@H](N1)C(=O)OCC(C)(C)C2 [Compound A49] |  |  | 1000 to 10000 nM | 1000 to 10000 | 100 to 1000 nM | 100 to 1000 nM | 1000 to 10000 nM | 1000 to 10000 nM | 1000 to 10000 nM | 100 to 1000 nM |  | IC50 (NCI-H358 (K-Ras G12C)): > 10000 nM |
| CCn1c(-c2cccnc2[C@H](C)OC)c2c3cc(ccc31)-c1cc(O)cc(c1)C[C@H](NC(=O)[C@H](C(C)C)N(C)C(=O)[C@H]1C[C@@H]1O)C(=O)N1CCC[C@H](N1)C(=O)OCC(C)(C)C2 (single isomer, unassigned) [Compound A346] |  | < 5000 |  |  |  |  |  |  |  |  |  | IC50 ([1]; K-Ras G12C, 5-day treatment): 100 to 1000 nM; IC50 [2]: 100 to 1000 nM |
| CCn1c(-c2cccnc2[C@H](C)OC)c2c3cc(ccc31)-c1csc(n1)C[C@H](NC(=O)[C@H](C(C)C)N(C)C(=O)O[C@H]1CCN(C)C1)C(=O)N1CCC[C@H](N1)C(=O)OCC(C)(C)C2 [Compound A173] | 100 to 1000 |  |  |  |  |  |  |  |  |  |  |  |
| CCn1c(-c2cccnc2[C@H](C)OC)c2c3cc(ccc31)-c1cc(O)cc(c1)C[C@H](NC(=O)[C@H](C(C)C)N(C)C(=O)[C@H]1CC1(C)C)C(=O)N1CCC[C@H](N1)C(=O)OCC(C)(C)C2 [Compound A158] |  | < 5000 | 100 to 1000 nM | 100 to 1000 | 100 to 1000 nM | 100 to 1000 nM | 100 to 1000 nM | 100 to 1000 nM | 100 to 1000 nM | 100 to 1000 nM | 1000 to 10000 |  |
| CCn1c(-c2cccnc2[C@H](C)OC)c2c3cc(ccc31)-c1cc(O)cc(c1)C[C@H](NC(=O)[C@H](C(C)C)N(C)C(=O)[C@H]1CCN(C(=O)[C@H]3CCCN3C)C1)C(=O)N1CCC[C@H](N1)C(=O)OCC(C)(C)C2 [Compound A371] |  | < 5000 | 10 to 100 nM | 10 to 100 | 10 to 100 nM | 10 to 100 nM | 10 to 100 nM | 10 to 100 nM | 10 to 100 nM | 10 to 100 nM | 1000 to 10000 |  |
| CCn1c(-c2cccnc2[C@H](C)OC)c2c3cc(ccc31)-c1csc(n1)C[C@H](NC(=O)[C@H](C(C)C)N(C)C(=O)N(C)[C@@H]1CCCN(C)C1)C(=O)N1CCC[C@H](N1)C(=O)OCC(C)(C)C2 [Compound A587] | 10 to 100 | < 5000 |  |  |  |  |  |  |  |  |  |  |

Continued, in another order:

| IC50 [1, 4] [nM] | EC50 [3] [nM] | IC50 (KRAS G13D) | IC50 (KRAS G12D) [nM] | IC50 (KRAS WT) | IC50 (KRAS G12C) | IC50 (NRAS G12C) | IC50 (KRAS G13C) | IC50 (KRAS G12S) | IC50 (KRAS G12V) | Compound | IC50 ([2]; Homo sapiens, CAPAN-1, 120 h) [nM] | other results |
| --- | --- | --- | --- | --- | --- | --- | --- | --- | --- | --- | --- | --- |
| 10 to 100 | < 5000 |  |  |  |  |  |  |  |  | CCn1c(-c2cccnc2[C@H](C)OC)c2c3cc(ccc31)-c1csc(n1)C[C@H](NC(=O)[C@H](C(C)C)N(C)C(=O)N1CCN(C(=O)[C@H]3CCCN3C)CC1)C(=O)N1CCC[C@H](N1)C(=O)OCC(C)(C)C2 [Compound A595] | 100 to 1000 |  |
| 10 to 100 | < 5000 |  |  |  |  |  |  |  |  | CCn1c(-c2cccnc2[C@H](C)OC)c2c3cc(ccc31)-c1csc(n1)C[C@H](NC(=O)[C@H](C(C)C)N(C)C(=O)N1CC([C@@H](C)N(C)C)C1)C(=O)N1CCC[C@H](N1)C(=O)OCC(C)(C)C2 [Compound A458] | 10 to 100 |  |
| 10 to 100 | < 5000 |  |  |  |  |  |  |  |  | CCn1c(-c2cccnc2[C@H](C)OC)c2c3cc(ccc31)-c1csc(n1)C[C@H](NC(=O)[C@H](C(C)C)N(C)C(=O)N1CC[C@@H](O)C1)C(=O)N1CCC[C@H](N1)C(=O)OCC(C)(C)C2 [Compound A376] | 10 to 100 |  |
| 10 to 100 | < 5000 |  |  |  |  |  |  |  |  | CCn1c(-c2cccnc2[C@H](C)OC)c2c3cc(ccc31)-c1csc(n1)C[C@H](NC(=O)[C@H](C(C)C)N(C)C(=O)N1CCC[C@@H](N(C)C)C1)C(=O)N1CCC[C@H](N1)C(=O)OCC(C)(C)C2 [Compound A531] | 10 to 100 |  |
|  | < 5000 | 10 to 100 nM | 10 to 100 | 10 to 100 nM | 10 to 100 nM | 10 to 100 nM | 10 to 100 nM | 10 to 100 nM | 100 to 1000 nM | CCn1c(-c2cccnc2[C@H](C)OC)c2c3cc(ccc31)-c1cc(O)cc(c1)C[C@H](NC(=O)[C@H](C(C)C)N(C)C(=O)[C@H]1CCCC[C@H]1N)C(=O)N1CCC[C@H](N1)C(=O)OCC(C)(C)C2 [Compound A419] | 100 to 1000 |  |

Source: patent US20250195521A1 (Revolution Medicines, Inc., priority 2020, published 2025)
